Measured values: US20080312160A1, “METHOD OF TREATING ENTERITIS, […], AND DIARRHEA FROM C. DIFFICILE WITH AN A2A ADENOSINE RECEPTOR AGONIST” (priority 2007, published 2008)

How the values were obtained:
[1] = test system: murine ileal loops injected with Clostridium difficile toxin A (TxA); test: TxA-induced enteritis in ligated murine ileal loops: loop weight and secretion volume; assay type: in vivo, mice
Protocol: For this study, 174 male Swiss mice, 25-30 g body weight, from the animal colony of the Federal University of Ceara were used. The animals received water and food ad libitum.
(§1) Mice were fasted overnight, but allowed access to water, and then anesthetized with ketamine and xylazine (60 and 5 mg/Kg intramuscularly, respectively). Through a midline laparotomy, one 4-cm ileal loop was ligated and injected with either 0.1 ml of PBS pH 7.4 (control) or buffer containing TxA (1-10 μg). The abdomen was closed, and the animals were allowed to regain consciousness. Three hours after administration of TxA, mice were sacrificed and the intestinal loops were removed. The loop length, weight, and fluid volume were recorded. A portion of the loop was frozen at −70° C. for measurement of myeloperoxidase (MPO) and ADA activities and TNF-α concentration. The remaining tissue was fixed in 10% formalin and embedded in paraffin, and sections were stained with hematoxylin and eosin for histological grading of ileal inflammation. Some mice were injected with ATL 313 ([…] final concentration) immediately followed by PBS or TxA (5 μg); another group was injected with ZM241385 (5 nM), the selective A2A AR antagonist, immediately followed by PBS or ATL 313 (5 nM)+TxA (5 μg) in the ileal loop. In another experiment, TxA (5 μg) was injected into the ileal loop, the abdomen was closed, and, 30 min later, the abdomen was reopened and ATL 313 (5 nM) administered.

[2] = test system: Clostridium difficile toxin A-induced TNF-α production; test: Quantification of TNF-α by ELISA in ileal tissue; assay type: in vivo, mice; details: ATL 313 + TxA vs TxA only
Protocol: as §1, with “In another experiment, TxA (5 μg) was injected into the ileal loop, the abdomen was closed, and, 30 min later, the abdomen was reopened and ATL 313 (5 nM) administered.” left out
Ileal tissue was harvested from animals in order to measure TNF-α concentration by enzyme-linked immunosorbent assay (ELISA). The results are expressed as pg/mL of TNF-α.

[3] = test system: C. difficile toxin A-induced inflammation and secretion in rabbit ileal loops; assay type: in vivo, New Zealand white rabbits; details: ATL 313 100 nM with alanyl-glutamine 25 mM; 5 hours
Protocol: Materials and Methods: New Zealand white rabbits weighing about 2 kg are fasted overnight. Under anesthesia with ketamine (60-80 mg/kg) and xylazine (5-10 mg/kg) administered intramuscularly, a midline abdominal incision is performed to expose the small bowel. After the ileum is flushed, four-cm loops are ligated using double ties with a 1 cm interval between loops. Each of the control loops is injected intraluminally with 1 mL solution of PBS with either C. difficile toxin A (toxin A) (Techlab, Blacksburg, Va.) at 10 μg/mL. Loops from another set of rabbits are treated with the adenosine A2A agonists, JMR 193 (ATL 193) (10 nM, 100 nM, or 1 uM doses) or ATL 146e ([…], 100 nM, 1 uM doses) immediately before the enterotoxin is administered. In addition a rabbit is treated with A2A agonist, ATL 313 (100 nM), alone and another rabbit treated with ATL 313 with alanyl-glutamine (25 mM). After 5 hours of incubation, the ligated small intestinal loops are removed. The length of each ligated ileal segment is measured and intraluminal fluid was quantified. Volume to length ratio, V/L (mL/cm), per loop is calculated. Samples of intestinal stained with hematoxylin-eosin and graded from 0 (none) to 4 (worst) based on the degree of mucosal disruption, increase in cellularity and intensity of vascular congestion.

[4] = test system: Clostridium difficile toxin A (TxA)-induced cell death; test: Cell death in intestinal sections (TUNEL method); assay type: in vivo, mice; details: ATL 313 + TxA
Protocol: as §1, with “administered. […]” for “administered.”

[5] = test system: Clostridium difficile toxin A-induced MPO activity; test: MPO assay in ileal tissue (neutrophil accumulation); assay type: in vivo, mice
Protocol: as §1, with “In another experiment, TxA (5 μg) was injected into the ileal loop, the abdomen was closed, and, 30 min later, the abdomen was reopened and ATL 313 (5 nM) administered.” left out
The extent of neutrophil accumulation in ileal tissue was estimated by measuring MPO activity assay. […] MPO activity in the resuspended pellet was assayed by measuring the change in absorbance at 450 nm using o-dianisidine dihydrochloride and 1% hydrogen peroxide. […]

[6] = test system: Clostridium difficile toxin A-induced ADA activity; test: ADA activity in ileal tissue and ileal secretion; assay type: in vivo, mice; details: ATL 313 in TxA-challenged animals
Protocol: Mice were fasted overnight, but allowed access to water, and then anesthetized with ketamine and xylazine (60 and 5 mg/Kg intramuscularly, respectively). Through a midline laparotomy, one 4-cm ileal loop was ligated and injected with either 0.1 ml of PBS pH 7.4 (control) or buffer containing TxA (1-10 μg). The abdomen was closed, and the animals were allowed to regain consciousness. Three hours after administration of TxA, mice were sacrificed and the intestinal loops were removed. The loop length, weight, and fluid volume were recorded. A portion of the loop was frozen at −70° C. for measurement of myeloperoxidase (MPO) and ADA activities and TNF-α concentration. […]
The ADA assay is based on the measurement of ammonia produced during the deamination of adenosine by the method of Giusti (1974. Adenosine deaminase, p. 1092-1099. In H. U. Bergmeyer (Ed.), Methods of Enzymatic Analysis, vol. 2. Academic Press Inc., New York), with slight modifications. […] Following the addition of 600 μl of sodium hypochloride (11 mM) in 125 mM NaOH all tubes were again incubated at 37° C. for 30 min and read at 628 nm. The enzyme activity in the tissue and in the ileum contents was expressed as μmols of ammonium formed/mg of protein/hour and as μmols of ammonium formed/hour, respectively.

[7] = test system: Clostridium difficile toxin A (TxA)-induced histological alterations; test: Histological grading of ileal inflammation, murine ileal loops; assay type: in vivo, mice; details: for median injury score: median(range)
Protocol: as §1
The severity of inflammation was scored in coded slides by a pathologist on a scale of 1 (mild) to 3 (severe) for epithelial damage, edema, and neutrophil infiltration.

[8] = ATL 313 5 nM alone, absence of TxA
[9] = ATL 313 5 nM in loop immediately followed by TxA 5 μg, 3 h, vs TxA alone

COC(=O)N1CCC(CC#Cc2nc(N)c3ncn(C4OC(C(=O)NC5CC5)C(O)C4O)c3n2)CC1 (stereo not shown) [ATL 313, 4-{3-[6-Amino-9-(5-cyclopropylcarbamoyl-3,4-dihydroxy-tetrahydro-furan-2-yl)-9H-purin-2-yl]-prop-2-ynyl}-piperidine-1-carboxylic acid methyl ester]
secretion volume/ileal loop length ratio [1, 8]: did not alter
weight/ileal loop length ratio [1, 8]: did not alter
weight/ileal loop length ratio ([1]; ATL 313 5 nM given 30 min after TxA 5 μg): 28.3 ± 1.4 mg/cm
secretion volume/ileal loop length ratio [1, 9]: significantly (P<0.05) reduced
weight/ileal loop length ratio [1, 9]: significantly (P<0.05) reduced
TNF-α production in ileal tissue [2]: significantly reduced (P<0.05)
toxin A-induced inflammation [3]: improved inflammation
toxin A-induced secretion (volume to length ratio) [3]: dramatically improved secretion
mucosal cell death [4]: reduced number for cell death similar to the level of PBS control
MPO activity in ileal tissue ([5]; ATL 313 5 nM alone, PBS=1.6±0.6): 2.1±0.2 U/mg
MPO activity in ileal tissue ([5]; ATL 313 5 nM then TxA 5 μg): 1.0±0.6 U/mg
ADA activity in ileal secretion [6]: significantly reduced (P<0.05)
ADA activity in ileal tissue [6]: significantly reduced (P<0.05)
histological injury score ([7]; ATL 313 30 min after injection of TxA 5 μg): 1(0-2)
median injury score ([7]; ATL 313 + TxA 5 μg/loop): 1(0-2)
median injury score ([7]; compound alone, no TxA): 0(0-0)
